Counter-ions that a name gives are not always drawn. Like-named read-outs stand apart in the source and are kept apart here.
System: type I collagen α1 chain mRNA in WI-38 cells
Assay: Type I collagen α1 chain mRNA expression inhibition test
Assay type: cell-based
Settings: Homo sapiens, read-out: Inhibition rate (%) at 10 μmol/L
Method: Human embryonic lung fibroblast cell line WI-38 cells were suspended in a Dulbecco's modified Eagle's medium containing 10% fetal calf serum, and 7.5×10^4 cells were inoculated on a 12-well plate and cultured for 3 days, or 1.5×10^5 cells were inoculated and cultured for 2 days. After the growth of the cells to a subconfluent state, the culture medium was changed to a Dulbecco's modified Eagle's medium containing 0.4% fetal calf serum and 50 μg/mL ascorbic acid, and the cells were further cultured for 24 hours. Then, a test compound was added thereto, and, one hour later, TGF-β1 was added at a final concentration of 1 ng/mL. Twenty-four hours after the addition, the total RNA was extracted from the cells using an RNA extraction kit (SV Total RNA Isolation System, Promega), and cDNA was synthesized using a reverse transcriptase (ReverTra Ace, TOYOBO). The expression level of the type I collagen al chain mRNA was analyzed with a real-time PCR instrument (ABI PRISM 7700 Sequence Detection System, Applied Biosystems) by a real-time PCR method using a premix reagent of real-time PCR (SYBR Premix Ex Taq or SYBR Premix Ex Taq II (Perfect Real Time), TaKaRa). A PCR reaction was conducted with diluted cDNA as a template, using primers specific for a type I collagen α1 chain gene or a GAPDH gene as an internal standard, and the reaction product was measured. The PCR reaction was conducted by incubation at 95° C. for 10 seconds and 45 cycles of denaturation at 95° C. for 5 seconds and annealing/extension at 60° C. for 30 seconds. The expression level of the type I collagen α1 chain mRNA was corrected with GAPDH and was expressed as a relative value when the expression level obtained in the absence of the test compound was defined as 100%.

[1] = 10 μmol/L test compound, WI-38 cells, TGF-β1 1 ng/mL, 24 hours, Table 4b
[2] = 10 μmol/L test compound, WI-38 cells, TGF-β1 1 ng/mL, 24 hours, Table 4a

| Structure (SMILES) | inhibition at 10 µM [2] | further results |
| --- | --- | --- |
| CNc1cccc(-c2ccc(C(=O)O)c(NC(=O)c3cncc(-c4ccccc4)c3)c2)c1 [13b, 4-(3-(Methylamino)phenyl)-2-(5-phenylpyridine-3-carboxamido)benzoic acid] | – | inhibition at 10 µM [1]: 92% |
| Cn1cccc1-c1ccc(C(=O)O)c(NC(=O)c2cncc(-c3ccccc3)c2)c1 [45b, 4-(1-methyl-1H-pyrrol-2-yl)-2-(5-phenylpyridine-3-carboxamido)benzoic acid] | – | inhibition at 10 µM [1]: 90% |
| COc1cccc(-c2ccc(C(=O)O)c(NC(=O)c3cc(N4CCOCC4)ccc3O)c2)c1 [204a, 2-(2-Hydroxy-5-(morpholin-4-yl)benzamido)-4-(3-methoxyphenyl)benzoic acid] | 89% | – |
| O=C(Nc1cc(-c2ccccc2)ccc1C(=O)O)c1cc(-c2ccccn2)ccc1O [Example 27a, 2-(2-hydroxy-5-(pyridin-2-yl)benzamido)-4-phenylbenzoic acid] | 98% | – |
| CCN(CCN(C)C)c1ccc(O)c(C(=O)Nc2cc(-c3ccccc3)ccc2C(=O)O)c1 [Example 104a, 2-(5-((2-(Dimethylamino)ethyl)(ethyl)amino)-2-hydroxybenzamido)-4-phenylbenzoic acid] | 92% | – |
| O=C(Nc1cc(-c2ccccc2)ccc1-c1nnn[nH]1)c1cncc(-c2ccccc2)c1 [29b, 5-phenyl-N-(5-phenyl-2-(1H-tetrazol-5-yl)phenyl)pyridine-3-carboxamide] | – | inhibition at 10 µM [1]: 86% |
| O=C(Nc1cc(-c2cccc(F)c2)ccc1C(=O)O)c1cc(N2CCOCC2)ccc1O [198a, 4-(3-Fluorophenyl)-2-(2-hydroxy-5-(morpholin-4-yl)benzamido)benzoic acid] | 81% | – |
| CN(C)c1ccc(O)c(C(=O)Nc2cc(-c3ccccc3)ccc2C(=O)O)c1 [Example 76a, 2-(5-(dimethylamino)-2-hydroxybenzamido)-4-phenylbenzoic acid hydrochloride] | 72% | – |
| O=C(Nc1cc(-c2ccccc2F)ccc1C(=O)O)c1cncc(-c2ccccc2)c1 [44b, sodium 4-(2-fluorophenyl)-2-(5-phenylpyridine-3-carboxamido)-benzoate] | – | inhibition at 10 µM (WI-38, 24 h): 93% |
| O=C(Nc1cc(-c2ccc3c(c2)ONO3)ccc1C(=O)O)c1cc(N2CCOCC2)ccc1O [207a, 4-(Benzo-[1,3]-dioxazol-5-yl)-2-(2-hydroxy-5-(morpholin-4-yl)benzamido)benzoic acid] | 83% | – |
| O=C(Nc1cc(-c2ccccc2)ccc1C(=O)O)c1cc(-n2cccn2)ccc1O [Example 22a, 2-(2-hydroxy-5-(1H-pyrazol-1-yl)benzamido)-4-phenylbenzoic acid] | 97% | – |
| O=C(Nc1cc(-c2ccccc2)ccc1C(=O)O)c1cc(OCCN2CCC(CCO)CC2)ccc1O [180a, 2-(2-Hydroxy-5-(2-(4-(hydroxyethyl)piperidin-1-yl)ethoxy)benzamido)-4-phenylbenzoic acid hydrochloride] | 85% | – |
| O=C(Nc1cc(Nc2ccccc2)ccc1C(=O)O)c1cncc(-c2ccccc2)c1 [61b, 4-anilino-2-(5-phenylpyridine-3-carboxamido)benzoic acid] | – | inhibition at 10 µM [1]: 86% |
| O=C(Nc1cc(-c2ccoc2)ccc1C(=O)O)c1cc(-c2cccnc2)ccc1O [Example 46a, sodium 4-(furan-3-yl)-2-(2-hydroxy-5-(pyridin-3-yl)benzamido)benzoate] | – | inhibition at 10 µM (WI-38, 24 h): 91% |
| O=C(Nc1cc(-c2ccc[nH]2)ccc1C(=O)O)c1cncc(-c2ccccc2)c1 [58b, 2-(5-phenylpyridine-3-carboxamido)-4-(1H-pyrrol-2-yl)benzoic acid] | – | inhibition at 10 µM [1]: 78% |
| O=C(Nc1cc(-c2ccccc2)ccc1C(=O)O)c1cc(Oc2ccccc2)ccc1O [Example 115a, 2-(2-hydroxy-5-phenoxybenzamido)-4-phenylbenzoic acid] | 98% | – |
| O=C(Nc1cc(-c2ccccc2)ccc1C(=O)O)c1cc(-c2ncccn2)ccc1O [Example 29a, 2-(2-hydroxy-5-(pyrimidin-2-yl)benzamido)-4-phenylbenzoic acid] | 90% | – |
| Cc1ccc(-c2ccc(C(=O)O)c(NC(=O)c3cc(N4CCCCC4)ccc3O)c2)cc1 [Example 150a, 2-(2-Hydroxy-5-(piperidin-1-yl)benzamido)-4-(4-methylphenyl)benzoic acid] | 93% | – |
| COc1cccc(-c2ccc(C(=O)O)c(NC(=O)c3cncc(-c4ccccc4)c3)c2)c1 [35b, Sodium 4-(3-methoxyphenyl)-2-(5-phenylpyridine-3-carboxamido)benzoate] | – | inhibition at 10 µM [1]: 96% |

| Structure (SMILES) | inhibition at 10 µM [2] | further results |
| --- | --- | --- |
| O=C(Nc1cc(-c2ccccc2)ccc1C(=O)O)c1cc(-c2ccco2)ccc1O [Example 68a, 2-(5-(furan-2-yl)-2-hydroxybenzamido)-4-phenylbenzoic acid] | 98% | – |
| COc1ccccc1-c1ccc(C(=O)O)c(NC(=O)c2cc(-c3ccccn3)ccc2O)c1 [Example 35a, 2-(2-Hydroxy-5-(pyridin-2-yl)benzamido)-4-(2-methoxyphenyl)benzoic acid hydrochloride] | 90% | – |
| Nc1ccccc1-c1ccc(C(=O)O)c(NC(=O)c2cncc(-c3ccccc3)c2)c1 [27b, 4-(2-Aminophenyl)-2-(5-phenylpyridine-3-carboxamido)benzoic acid] | – | inhibition at 10 µM [1]: 72% |
| CN1CCC(c2ccc(O)c(C(=O)Nc3cc(-c4ccccc4)ccc3C(=O)O)c2)CC1 [Example 50a, 2-(2-hydroxy-5-(1-methylpiperidin-4-yl)benzamido)-4-phenylbenzoic acid] | 75% | – |
| O=C(Nc1cc(N2CCCCC2)ccc1C(=O)O)c1cncc(-c2ccccc2)c1 [63b, Sodium 2-(5-phenylpyridine-3-carboxamido)-4-(piperidin-1-yl)benzoate] | – | inhibition at 10 µM (WI-38, 24 h): 65% |
| COc1ccc(C(=O)Nc2cc(-c3ccccc3)ccc2C(=O)O)c(O)c1 [Example 6a, 2-(2-Hydroxy-4-methoxybenzamido)-4-phenylbenzoic acid] | 95% | – |
| O=C(Nc1cc(-c2ccccc2)ccc1C(=O)O)c1ccc(-c2ccccc2)nc1 [3b, 4-phenyl-2-(6-phenylpyridine-3-carboxamido)benzoic acid] | – | inhibition at 10 µM [1]: 83% |
| O=C(Nc1cc(-c2ccccc2)ccc1C(=O)O)c1cc(OCCN2CCC2)ccc1O [177a, 2-(5-(2-(azetidin-1-yl)ethoxy)-2-hydroxybenzamido)-4-phenylbenzoic acid hydrochloride] | 82% | – |
| Cc1ccc(O)c(C(=O)Nc2cc(-c3ccccc3)ccc2C(=O)O)c1 [Example 4a, 2-(2-Hydroxy-5-methylbenzamido)-4-phenylbenzoic acid] | 97% | – |
| O=C(Nc1cc(-c2ccccc2C(F)(F)F)ccc1C(=O)O)c1cncc(-c2ccccc2)c1 [33b, Sodium 2-(5-phenylpyridine-3-carboxamido)-4-(2-(trifluoromethyl)phenyl)benzoate] | – | inhibition at 10 µM [1]: 78% |
| O=C(Nc1cc(-c2ccccc2)ccc1C(=O)O)c1cc(-n2ccnc2)ccc1O [Example 34a, 2-(2-Hydroxy-5-(1H-imidazol-1-yl)benzamido)-4-phenylbenzoic acid hydrochloride] | 82% | – |
| O=C(Nc1cc(-c2ccccc2)ccc1C(=O)O)c1cc(OCCN2CCCCCC2)ccc1O [181a, 2-(5-(2-(Homopiperidin-1-yl)ethoxy)-2-hydroxybenzamido)-4-phenylbenzoic acid hydrochloride] | 74% | – |
| COc1ccccc1-c1ccc(C(=O)O)c(NC(=O)c2cc(-c3cccnc3)ccc2O)c1 [Example 37a, 2-(2-hydroxy-5-(pyridin-3-yl)benzamido)-4-(2-methoxyphenyl)benzoic acid] | 94% | – |
| O=C(O)c1ccc(-c2ccccc2)cc1NC(=O)c1cccc(-c2cccnc2)c1O [Example 16a, Sodium 2-(2-hydroxy-3-(pyridin-3-yl)benzamido)-4-phenylbenzoate] | 80% | – |
| O=C(Nc1cc(-c2ccccc2)ccc1C(=O)O)c1cc(OCCN2CCNCC2)ccc1O [Example 144a, 2-(2-hydroxy-5-(2-(piperazin-1-yl)ethoxy)benzamido)-4-phenylbenzoic acid dimethanesulfonate] | 96% | – |
| O=C(Nc1cc(-c2ccccc2)ccc1C(=O)O)c1cc(C2CCN(CCO)CC2)ccc1O [225a, 2-(2-hydroxy-5-(1-(2-hydroxyethyl)piperidin-4-yl)benzamido)-4-phenylbenzoic acid] | 86% | – |
| CN(CCN1CCCC1)c1ccc(O)c(C(=O)Nc2cc(-c3ccccc3)ccc2C(=O)O)c1 [Example 95a, sodium 2-(2-hydroxy-5-(methyl(2-(pyrrolidin-1-yl)ethyl)amino)benzamido)-4-phenylbenzoate] | – | inhibition at 10 µM (WI-38, 24 h): 88% |
| CN(C)CCN(C)c1ccc(C(=O)Nc2cc(-c3ccccc3)ccc2C(=O)O)c(O)c1 [Example 97a, sodium 2-(4-((2-(dimethylamino)ethyl)(methyl)amino)-2-hydroxybenzamido)-4-phenylbenzoate] | – | inhibition at 10 µM (WI-38, 24 h): 83% |
